Assay results as given in patent US8106055B2, “Substituted amide compounds” (Gruenenthal GmbH, priority 2007, dated 2012).

How the values were obtained:
[1] = biological target: T1, bradykinin 1 receptor (B1R) of the rat (Rattus norvegicus, UniProt P97583); test: Functional investigation on the rat bradykinin 1 receptor (B1R), Ca2+ FLIPR assay in CHO K1 rB1R cells; format: cell-based; settings: CHO-K1, B1R antagonism rat; test substance 10 μM; Ca2+ FLIPR, CHO K1 rB1R cells; read-out: B1R Ant. r [10 μM] % Inhibition
T1 construct: expressed in transfected cells; host or cells: CHO K1 cells
T1 sequence (P97583 1-337): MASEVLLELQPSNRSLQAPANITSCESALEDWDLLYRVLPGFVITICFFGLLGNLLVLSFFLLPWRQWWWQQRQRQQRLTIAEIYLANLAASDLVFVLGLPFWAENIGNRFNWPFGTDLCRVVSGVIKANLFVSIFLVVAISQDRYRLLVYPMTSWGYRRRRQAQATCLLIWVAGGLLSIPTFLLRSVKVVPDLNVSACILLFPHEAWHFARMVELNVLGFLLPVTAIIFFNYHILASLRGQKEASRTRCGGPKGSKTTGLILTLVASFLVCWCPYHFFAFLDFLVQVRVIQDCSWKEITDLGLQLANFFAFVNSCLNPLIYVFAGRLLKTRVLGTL
Outline: (§1)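 Peak Ca2+-dependent fluorescence in B1R-transfected CHO K1 cells measures antagonism of an EC80 agonist challenge given 10-20 min after compound. Agonist is Lys-Des-Arg9-bradykinin for human, Des-Arg9-bradykinin for rat receptor.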

[2] = biological target: T2, human bradykinin 1 receptor (B1R) (Homo sapiens, UniProt P46663); test: Functional investigation on the human bradykinin 1 receptor (B1R), Ca2+ FLIPR assay in CHO K1 hB1R cells; format: cell-based; settings: CHO-K1, B1R antagonism human; test substance 10 μM; Ca2+ FLIPR, CHO K1 hB1R cells; read-out: B1R Ant. h [10 μM] % Inhibition
T2 construct: expressed in transfected cells; host or cells: CHO K1 cells
T2 sequence (P46663 1-353): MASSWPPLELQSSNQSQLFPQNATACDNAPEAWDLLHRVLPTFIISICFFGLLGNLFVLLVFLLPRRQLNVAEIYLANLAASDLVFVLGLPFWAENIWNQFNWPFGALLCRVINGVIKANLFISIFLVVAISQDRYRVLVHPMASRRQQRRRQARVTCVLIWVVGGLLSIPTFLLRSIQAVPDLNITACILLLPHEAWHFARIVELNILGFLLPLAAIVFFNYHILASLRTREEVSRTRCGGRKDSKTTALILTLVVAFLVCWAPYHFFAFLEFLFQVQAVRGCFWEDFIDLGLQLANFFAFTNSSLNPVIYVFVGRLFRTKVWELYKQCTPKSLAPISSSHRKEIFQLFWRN
Outline: as §1

SMILES	inhibition at 10 µM [1] [%]	inhibition at 10 µM [2] [%]
Cc1cc(C)c(S(=O)(=O)N2CCC(OCC(=O)NCC3CCC(C(c4cccc(F)c4)N(C)C)CC3)C2)c(C)c1 (centres unmarked) [Example 141, N-((4-((dimethylamino)(3-fluorophenyl)methyl)cyclohexyl)methyl)-2-(1-(mesitylsulfonyl)pyrrolidin-3-yloxy)acetamide]	26	54
CN(C)C(c1cccc(F)c1)C1CCC(CNC(=O)COC2CCCCC2N(C)S(=O)(=O)c2ccc(Cl)c(Cl)c2)CC1 (centres unmarked) [Example 164, 2-(2-(3,4-dichloro-N-methylphenylsulfonamido)cyclohexyloxy)-N-((4-((dimethylamino)(3-fluorophenyl)methyl)cyclohexyl)methyl)acetamide]	17	14
Cc1ccc(S(=O)(=O)N(C)CCOCC(=O)NCC2CCC(C(c3ccccc3)N(C)C)CC2)cc1 (centres unmarked) [Example 157, N-((4-((dimethylamino) (phenyl)methyl)cyclohexyl)methyl)-2-(2-(N,4-dimethylphenylsulfonamido)ethoxy)acetamide]	-1	5
COc1ccc(S(=O)(=O)N2CCC(OCC(=O)NCC3CCC(C(c4cccc(F)c4)N(C)C)CC3)C2)cc1OC (centres unmarked) [Example 184, 2-(1-(3,4-dimethoxyphenylsulfonyl)pyrrolidin-3-yloxy)-N-((4-((dimethylamino)(3-fluorophenyl)methyl)cyclohexyl)methyl)acetamide]	38	-29
COc1cc(C)c(S(=O)(=O)N2CCC(OCC(=O)NCC3CCC(C(c4ccccc4)N(C)C)CC3)CC2)c(C)c1C (centres unmarked) [Example 143, N-((4-((dimethylamino)(phenyl)methyl)cyclohexyl)methyl)-2-(1-(4-methoxy-2,3,6-trimethylphenylsulfonyl)piperidin-4-yloxy)acetamide]	19	11
CN(C)C(c1cccs1)C1CCC(CNC(=O)COC2CCN(S(=O)(=O)c3cccc(C(F)(F)F)c3)C2)CC1 (centres unmarked) [Example 25, N-((4-((dimethylamino)(thiophen-2-yl)methyl)cyclohexyl)methyl)-2-(1-(3-(trifluoromethyl)phenylsulfonyl)pyrrolidin-3-yloxy)acetamide]	30	-6
COc1ccc(S(=O)(=O)N2CCCCC2COCC(=O)NCCC2CCC(C(c3cccc(F)c3)N(C)C)CC2)cc1OC (centres unmarked) [Example 191, 2-((1-(3,4-dimethoxyphenylsulfonyl)piperidin-2-yl)methoxy)-N-(2-(4-((dimethylamino)(3-fluorophenyl)methyl)cyclohexyl)ethyl)acetamide]	-14	-16
COc1ccc(S(=O)(=O)N2CCC(OCC(=O)NC3CCC(C(c4cccs4)N(C)C)CC3)C2)cc1OC (centres unmarked) [Example 155, 2-(1-(3,4-dimethoxyphenylsulfonyl)pyrrolidin-3-yloxy)-N-(4-((dimethylamino)(thiophen-2-yl)methyl)cyclohexyl)acetamide]	1	-8
Cc1ccc(S(=O)(=O)N2CCC(OCC(=O)NC3CCC(C(c4cccc(F)c4)N(C)C)CC3)C2)cc1 (centres unmarked) [Example 167, N-(4-((dimethylamino)(3-fluorophenyl)methyl)cyclohexyl)-2-(1-tosylpyrrolidin-3-yloxy)acetamide]	40	-12
COc1ccc(S(=O)(=O)N2CCC(OCC(=O)NCC3CCC(C(c4cccs4)N(C)C)CC3)C2)cc1OC (centres unmarked) [Example 23, 2-(1-(3,4-dimethoxyphenylsulfonyl)pyrrolidin-3-yloxy)-N-((4-((dimethylamino)(thiophen-2-yl)methyl)cyclohexyl)methyl)acetamide]	7	-25
CN(C)C(c1ccccc1)C1CCC(NC(=O)COCCN(C)S(=O)(=O)c2ccc(Cl)cc2Cl)CC1 (centres unmarked) [Example 33, 2-(2-(2,4-dichloro-N-methylphenylsulfonamido)ethoxy)-N-(4-((dimethylamino)(phenyl)methyl)cyclohexyl)acetamide]	9	77
COc1ccc(S(=O)(=O)N2Cc3ccccc3CC2COCC(=O)NCCC2CCC(C(c3cccc(F)c3)N(C)C)CC2)cc1 (centres unmarked) [Example 190, N-(2-(4-((dimethylamino) (3-fluorophenyl)methyl)cyclohexyl)ethyl)-2-((2-(4-methoxyphenylsulfonyl)-1,2,3,4-tetrahydroisoquinolin-3-yl)methoxy)acetamide]	18	29
Cc1ccc(S(=O)(=O)N2CCC(OCC(=O)NC3CCC(C(c4cccs4)N(C)C)CC3)C2)cc1 (centres unmarked) [Example 156, N-(4-((dimethylamino)(thiophen-2-yl)methyl)cyclohexyl)-2-(1-tosylpyrrolidin-3-yloxy)acetamide]	20	5
Cc1cc(C)c(S(=O)(=O)N2CCC(OCC(=O)NCC3CCC(C(c4ccccc4)N(C)C)CC3)C2)c(C)c1 (centres unmarked) [Example 26, N-((4-((dimethylamino)(phenyl)methyl)cyclohexyl)methyl)-2-(1-(mesitylsulfonyl)pyrrolidin-3-yloxy)acetamide]	38	51
COc1cc(C)c(S(=O)(=O)N(CCOCC(=O)NC2CCC(C(c3ccccc3)N(C)C)CC2)Cc2ccccc2)c(C)c1C (centres unmarked) [Example 193, 2-(2-(N-benzyl-4-methoxy-2,3,6-trimethylphenylsulfonamido)ethoxy)-N-(4-((dimethylamino) (phenyl)methyl)cyclohexyl)acetamide]	6	97
CN(C)C(c1cccs1)C1CCC(NC(=O)COCCN(C)S(=O)(=O)c2cccc(C(F)(F)F)c2)CC1 (centres unmarked) [Example 152, N-(4-((dimethylamino)(thiophen-2-yl)methyl)cyclohexyl)-2-(2-(N-methyl-3-(trifluoromethyl)phenylsulfonamido)ethoxy)acetamide]	4	16
CN(C)C(c1ccccc1)C1CCC(CNC(=O)COCCN(Cc2ccccc2)S(=O)(=O)c2ccccc2)CC1 (centres unmarked) [Example 15, 2-(2-(N-benzylphenylsulfonamido)ethoxy)-N-((4-((dimethylamino)(phenyl)methyl)cyclohexyl)methyl)acetamide]	-18	11
COc1ccc(S(=O)(=O)N2CCCCC2COCC(=O)NCC2CCC(C(c3cccc(F)c3)N(C)C)CC2)c(OC)c1 (centres unmarked) [Example 151, 2-((1-(2,4-dimethoxyphenylsulfonyl)piperidin-2-yl)methoxy)-N-((4-((dimethylamino)(3-fluorophenyl)methyl)cyclohexyl)methyl)acetamide]	23	24
COc1cc(C)c(S(=O)(=O)N2CCC(OCC(=O)NC3CCC(C(c4cccc(F)c4)N(C)C)CC3)C2)c(C)c1C (centres unmarked) [Example 189, N-(4-((dimethylamino)(3-fluorophenyl)methyl)cyclohexyl)-2-(1-(4-methoxy-2,3,6-trimethylphenylsulfonyl)pyrrolidin-3-yloxy)acetamide]	16	47
COc1cc(C)c(S(=O)(=O)N2CCN(CCOCC(=O)NC3CCC(C(c4ccccc4)N(C)C)CC3)CC2)c(C)c1C (centres unmarked) [Example 20, N-(4-((dimethylamino)(phenyl)methyl)cyclohexyl)-2-(2-(4-(4-methoxy-2,3,6-trimethylphenylsulfonyl)piperazin-1-yl)ethoxy)acetamide]	-9	101
CN(C)C(c1cccc(F)c1)C1CCC(CCNC(=O)COCCN(C)S(=O)(=O)c2ccc(Cl)cc2)CC1 (centres unmarked) [Example 186, 2-(2-(4-chloro-N-methylphenylsulfonamido)ethoxy)-N-(2-(4-((dimethylamino)(3-fluorophenyl)methyl)cyclohexyl)ethyl)acetamide]	35	23
CN(C)C(c1ccccc1)C1CCC(CNC(=O)COCCN(C)S(=O)(=O)c2c(Cl)cccc2Cl)CC1 (centres unmarked) [Example 13, 2-(2-(2,6-dichloro-N-methylphenylsulfonamido)ethoxy)-N-((4-((dimethylamino)(phenyl)methyl)cyclohexyl)methyl)acetamide]	44	99
